Experimental data reported in patent US20220023317A1, “PREVENTING OR MITIGATING CHEMOTHERAPY INDUCED ALOPECIA USING VITAMIN D” (Berg LLC, priority 2013, published 2022).

Tests used:
PC-3 = experiment: Cell growth / viability assay; type: cell-based; conditions: 0.1 μg/mL calcitriol for two passages
Procedure: In these experiments, a selected commercial drug was serially diluted, starting at a concentration 4-times higher than the final desired concentration for cell incubation. […] The drug treatment period was usually three days. At the end of the three days, the background OD of the 96-well plate was read at 280 nm, before 20 μL of the “Substrate Cell Titer 96 Aqueous One Solution Reagent” (Promega) was added to each well. […] The net OD increase was calculated by subtracting the pre-substrate OD reading. The impact of the drug on the cells was calculated by comparing the OD at different concentrations in relation to the OD of the control wells (without the drug). The results of the Net OD as a function of drug concentration was plotted and used to determine ED50 values. […] Then these pretreated cells were utilized to set up the cell based assay.

[1] = Preliminary animal toxicology study; type: in vivo; conditions: dose of about 100 μg
guinea pigs = experiment: Skin sensitization study; type: in vivo, guinea pig; conditions: calcitriol at 5.7 μg/g, topical patch induction and challenge
Procedure: Induction phase. […] The induction exposure was repeated at the same skin site once a week for 2 weeks. The vehicle and positive control groups composed of 5 male and 5 female guinea pigs, each of which were exposed in the same manner as the treatment group to propylene glycol/anhydrous ethanol or hexylcinnamic aldehyde (a known mild to moderate skin-sensitizer), respectively. Skin reactions were scored and recorded at approximately 24 hours after patch removal during the induction phase. After the last induction exposure, the animals remained untreated for two weeks before the challenge exposure.
Challenge phase. The challenge exposure was conducted two weeks after the final topical induction. The test article was topically applied to the Vehicle Control and Test Group at the concentration determined to be non-irritating in the irritation screen. The Vehicle Control Group was also challenged with the Vehicle. The Positive Control Groups received the positive control article. The challenge application sites were scored at approximately 24 and 48 hours after patch removal.

[2] = system: Sprague-Dawley or Long Evans rats; experiment: Second CIA study, calcitriol 1, 2 or 3 μg/mL; type: in vivo, rat
Procedure: CIA was administered topically at concentrations of 1, 2, or 3 μg/mL on Days 5 to 10 followed by administration of various chemotherapeutic agents (etoposide; cyclophosphamide; doxorubicin and cyclophosphamide; cytosine beta-D arabinofurosamine; cytosine beta-D arabinofurosamine and doxorubicin; and paclitaxel).

HEKa cells = experiment: Pretreatment of cells with calcitriol before chemotherapy drugs; type: cell-based, human
Procedure: Then these pretreated cells were utilized to set up the cell based assay. […] Three commonly used chemotherapy drugs (doxorubicin, cisplatin and erlotinib) were selected to evaluate calcitriol treated cells. […] In these experiments, the commercial drugs were serially diluted, starting at a concentration 4-times higher than the final desired concentration for cell incubation. […] The assay was carried out according to the previously described method in order to provide consistency and allow direct comparison. The result was based upon measurement of the total number of viable cells. […] Thus, a topical application of calcitriol could be applied at the same time as the systemic delivery of the chemotherapy. A staged application is not required.

NCI-ES-0808 = experiment: Cell growth / viability assay; type: cell-based
Gottingen Minipig = experiment: 4-week dermal toxicity study in Gottingen Minipigs; conditions: dermal, twice daily, 29 days, 2.1 mL over 450 cm^2
Procedure: (§1) Observations for morbidity, mortality, injury, and the availability of food and water were conducted twice daily for all animals. Clinical observations were conducted weekly.

[3] = 4-week dermal toxicity study in Gottingen Minipigs; conditions: both, Gottingen, minipig, in vivo
Procedure: as §1

NIH-3T3 = experiment: Cell growth / viability assay; type: cell-based
C3H/HeJ mouse = experiment: C3H/HeJ model of alopecia areata; type: in vivo; conditions: 0.2 μg for 15 days, observed 30 days
Procedure: C3H/HeJ Model of Abpecia Areata. Retired breeders (8 months of age) were observed daily for the development of AA lesions. […] One group received ethanol vehicle control whereas the other received 0.2 μg 1,25(OH)2D3 in the alopecic lesions for 15 days.

SKMEL-28 = experiment: Cell growth / viability assay; type: cell-based
scalp hair follicles = experiment: Rat model, duration of calcitriol treatment before chemotherapy; type: in vivo
Description: While not wishing to be bound by any particular theory, it is believed that application of vitamin D to the scalp or any other area of skin having hair induces differentiation of hair follicles, which is required for the stage conversion of the hair from a growing anagen stage to an involuting catagen stage. […] In humans, a hair follicle of the scalp has a substantially longer anagen phase than that of animals. Indeed, at any time, at least 90% of hair follicles in a human scalp are in the anagen phase. It is believed that a short treatment duration is not sufficient to induce catagen stage in scalp hair follicles, which subsequently makes them more susceptible to cytotoxicity of chemotherapy. […] Continued application on a daily basis will ensure the maintenance of the catagen stage and extended protection throughout administration of multiple doses of a chemotherapeutic (e.g., taxane-containing) regimen.

SkBr-3 = experiment: Cell growth / viability assay; type: cell-based
C57BL/6 mice = conditions: topical calcitriol; cited from earlier work
[4] = system: squamous cell carcinoma and human prostate cell carcinoma; conditions: 2.5 μg calcitriol 3 doses daily for 3 days, followed by paclitaxel; cited from earlier work

C=C1/C(=C\C=C2/CCC[C@]3(C)[C@@H]([C@H](C)CCCC(C)(C)O)CC[C@@H]23)C[C@@H](O)C[C@@H]1O [Calcitriol, (1a.3B.5Z.7E)-9,10-secocholesta-5,7,10(19)-triene-1,3,25-triol]
response to doxorubicin, cisplatin, erlotinib after calcitriol exposure (PC-3): did not alter | dermal irritation [1]: no dermal irritation | skin penetration [1]: excellent epidermal penetration without substantial dermal penetration | skin sensitization (guinea pigs): not determined to be a sensitizer | extent of hair growth ([2]; 1 μg/mL): hair growth was limited to the treated area | extent of hair growth ([2]; 3 μg/mL): hair growth was also observed on the dorsal region | protection against CIA ([2]; 1 to 3 μg/mL applied for 6 hours, all chemotherapeutic agents tested): 100% | effect on cure rate with cyclophosphamide ([2]; chloroleukemia induced with MIAC51): did not affect the cure rate | protection from CIA, 6-hour exposure ([2]; topical, Days 5 to 10): complete protection | protection from CIA, 1.5 hour exposure ([2]; topical, Days 5 to 10): no protection | HEKa growth after prolonged calcitriol exposure (HEKa cells; 0.1 μg/mL calcitriol, two cell passages): stopped growing | chemoprotection, pre-treatment group vs simultaneous treatment group (HEKa cells; 0.1 μg/mL, doxorubicin, cisplatin, erlotinib): nearly identical | effect of calcitriol on cell growth (NCI-ES-0808): no significant growth promoting or growth inhibiting effects | effect of calcitriol on cytotoxic effect of Doxorubicin (NCI-ES-0808): did not appear to appreciably alter | no-observed-adverse-effect-level (NOAEL) (Gottingen Minipig): 10.31 µg/mL | NOAEL at 29 days [3]: 3.33 µg/kg | effect of calcitriol on cell growth (NIH-3T3): no significant growth promoting or growth inhibiting effects | effect of calcitriol on cytotoxic effect of Doxorubicin (NIH-3T3): did not appear to appreciably alter | regrowth of hair in alopecic lesions (C3H/HeJ mouse): No regrowth of hair | effect of calcitriol on cell growth (SKMEL-28): no significant growth promoting or growth inhibiting effects | effect of calcitriol on cytotoxic effect of Doxorubicin (SKMEL-28): did not appear to appreciably alter | 5-FU ED50 curve with vs without calcitriol (SKMEL-28; 0.1 μg/mL calcitriol supplement): not significantly different | daily application before chemotherapy required to see any protective effect (scalp hair follicles): at least four days | protection with 5 days of application before chemotherapy (scalp hair follicles; increasing protection up to one week): moderate protection | effect of calcitriol on cell growth (SkBr-3): no significant growth promoting or growth inhibiting effects | effect of calcitriol on cytotoxic effect of Doxorubicin (SkBr-3): did not appear to appreciably alter | follicular apoptosis induced by cyclophosphamide (C57BL/6 mice): significantly diminish the degree of follicular apoptosis | tumor response [4]: significant tumor regression
